Laboratory results from patent US9808448B2, “Pharmaceutical compounds and use of same in cancer and tauopathies” (THE REGENTS OF THE UNIVERSITY OF MICHIGAN, priority 2013, dated 2017).
Where two headings read alike, the source gives them in different places.

Tests used:
Assay type in all cases: cell-based
MDA-MB-231 = assay: Cancer activity screen (MTT cell survival), MDA-MB-231; settings: Homo sapiens
HeLa = assay: Cancer activity screen (MTT cell survival), HeLa; settings: Homo sapiens
MCF-10A = assay: Cancer activity screen (MTT cell survival), MCF-10A; settings: Homo sapiens
MCF-7 = assay: Cancer activity screen (MTT cell survival), MCF-7; settings: Homo sapiens, MCF7
MEF (C57BL/6) = assay: Cell survival, MEF; settings: Mus musculus, read-out: IC50/μM MEF (C57BL/6)

Structure (SMILES) | IC50 (MEF (C57BL/6); second table) | IC50 (MDA-MB-231; second table) | other results
CCn1c(=O)/c(=C2\Sc3ccccc3N2C)s/c1=C\c1cccc[n+]1Cc1ccc(F)c(F)c1 | – | – | IC50 (MDA-MB-231): 4.4 ± 0.39 µM; IC50 (HeLa): 12.3 ± 1.21 µM; IC50 (MCF-10A): 3.06 ± 0.38 µM; IC50 (MCF-7): 9.6 ± 2.98 µM
CCn1c(=O)/c(=C2\Sc3c(F)cccc3N2C)s/c1=C\c1cccc[n+]1CC | 27.1 ± 3 µM | 2.8 ± 0.2 µM | IC50 (MCF-7; second table): 0.8 ± 0.1 µM
CCn1c(=O)/c(=C2\Sc3ccc(OC)cc3N2C)s/c1=C\c1cccc[n+]1Cc1ccccc1 | – | – | IC50 (MDA-MB-231): 1.43 ± 0.19 µM; IC50 (HeLa): 3.63 ± 0.32 µM; IC50 (MCF-10A): 1.74 ± 0.19 µM; IC50 (MCF-7): 1.6 ± 0.36 µM
CCN1C(=O)/C(=C2\Sc3cccc(F)c3N2C)S/C1=N\c1ccccc1 | > 50 µM | > 30 µM | –
CCN1C(=O)/C(=C2\Sc3cc(C(F)(F)F)ccc3N2C)S/C1=N\c1ccccc1 | > 50 µM | 16.2 ± 1.12 µM | –
COC(=O)Cn1c(=O)/c(=C2\Sc3cc(C(F)(F)F)ccc3N2C)s/c1=C\c1ccccn1 | > 50 µM | > 30 µM | –
COC(=O)Cn1c(=O)/c(=C2\Sc3cc(C(F)(F)F)ccc3N2C)s/c1=C\c1nccs1 | > 50 µM | > 30 µM | –
CCn1c(=O)/c(=C2\Sc3ccc(F)cc3N2C)s/c1=C\c1cccc[n+]1CC | > 30 µM | 13.3 ± 0.7 µM | IC50 (MCF-7; second table): 2.4 ± 0.6 µM
CCN1C(=O)/C(=C2\Sc3ccccc3N2C)S/C1=N\c1ccccc1 | > 50 µM | > 30 µM | –
CCn1c(=O)/c(=C2\Sc3cc(Cl)ccc3N2C)s/c1=C\c1scc[n+]1Cc1ccccc1 | – | – | IC50 (MEF (C57BL/6)): 23.9 ± 1.28 µM; IC50 (MDA-MB-231): 0.39 ± 0.03 µM; IC50 (HeLa): 0.83 ± 0.2 µM; IC50 (MCF-7): 0.71 ± 0.22 µM
CCn1c(=O)/c(=C2\Sc3cccc(F)c3N2C)s/c1=C\c1cccc[n+]1CC | > 30 µM | 3.8 ± 0.2 µM | IC50 (MCF-7; second table): 1 ± 0.3 µM
CN1/C(=c2\s/c(=C\c3cc(Cl)cc[n+]3C)n(Cc3ccccc3)c2=O)Sc2ccccc21 | – | – | IC50 (MDA-MB-231): 2.83 ± 0.26 µM; IC50 (MCF-10A): 1.12 ± 0.04 µM; IC50 (MCF-7): 2.81 ± 1.01 µM
CCn1c(=O)/c(=C2\Sc3cc(F)ccc3N2C)s/c1=C\c1cccc[n+]1CC | > 30 µM | 8.3 ± 1.1 µM | IC50 (MCF-7; second table): 0.9 ± 0.3 µM
CCN1C(=O)/C(=C2\Sc3cc(F)ccc3N2C)S/C1=N\c1ccccc1 | > 50 µM | > 30 µM | –
COC(=O)Cn1c(=O)/c(=C2\Sc3ccccc3N2C)s/c1=C\c1cccc[n+]1C | > 50 µM | 16.5 ± 1.05 µM | –
CCN1C(=O)/C(=C2\Sc3c(F)cccc3N2C)S/C1=N\c1ccccc1 | > 50 µM | 17.7 ± 2.85 µM | –
CCn1c(=O)/c(=C2\Sc3ccccc3N2C)s/c1=C\c1scc[n+]1Cc1ccccc1 | 6.8 ± 0.4 µM | 0.5 ± 0.1 µM | IC50 (MCF-7; second table): 0.6 ± 0.04 µM
CCn1c(=O)/c(=C2\Sc3ccccc3N2C)s/c1=C\c1cc[n+](C)cc1 | > 50 µM | 3.01 ± 0.26 µM | –
COC(=O)Cn1c(=O)/c(=C2\Sc3ccccc3N2C)s/c1=C\c1scc[n+]1Cc1ccccc1 | > 50 µM | 0.87 ± 0.14 µM | –
CCn1c(=O)/c(=C2\Sc3cc(Cl)ccc3N2C)s/c1=C\c1ccc(C#N)c[n+]1Cc1ccccc1 | > 50 µM | 1.92 ± 0.16 µM | –
CCn1c(=O)/c(=C2\Sc3cccc(F)c3N2C)s/c1=C\c1cccc[n+]1Cc1ccc(CNC(=O)OC(C)(C)C)cc1 | – | – | IC50 (MDA-MB-231): 1.99 ± 0.33 µM; IC50 (HeLa): 7.6 ± 0.99 µM; IC50 (MCF-7): 1.39 ± 0.24 µM
CCn1c(=O)/c(=C2\Sc3c(Cl)cccc3N2C)s/c1=C\c1scc[n+]1Cc1ccccc1 | – | – | IC50 (MEF (C57BL/6)): > 30 µM; IC50 (MDA-MB-231): 0.55 ± 0.05 µM; IC50 (HeLa): 3.93 ± 0.51 µM; IC50 (MCF-7): 1.05 ± 0.79 µM
COC(=O)Cn1c(=O)/c(=C2\Sc3ccccc3N2C)s/c1=C\c1ccccn1 | > 50 µM | – | –
CCn1c(=O)/c(=C2\Sc3c(ccc(F)c3F)N2C)s/c1=C\c1scc[n+]1Cc1ccsc1C(=O)OC | – | 0.21 ± 0.03 µM | –
CCn1c(=O)/c(=C2\Sc3cc(F)ccc3N2C)s/c1=C\c1scc[n+]1Cc1ccc(C(F)(F)F)o1 | – | 0.16 ± 0.03 µM | –
CCn1c(=O)/c(=C2\Sc3ccccc3N2C)s/c1=C\c1scc[n+]1CC | > 30 µM | 2.2 ± 0.2 µM | IC50 (MCF-7; second table): 0.8 ± 0.1 µM
CCn1c(=O)/c(=C2\Sc3ccc(Cl)cc3N2C)s/c1=C\c1cccc[n+]1Cc1ccccc1 | – | 0.34 ± 0.03 µM | –
CCn1c(=O)/c(=C2\Sc3cc(Cl)ccc3N2C)s/c1=C\c1scc[n+]1Cc1cccc(C(F)(F)F)c1 | – | 0.4 ± 0.04 µM | –

Structure (SMILES) | IC50 (MEF (C57BL/6); second table) | IC50 (MDA-MB-231; second table) | other results
CCn1c(=O)/c(=C2\Sc3ccc(Cl)cc3N2C)s/c1=C\c1scc[n+]1Cc1ccccc1 | – | – | IC50 (MDA-MB-231): 0.62 ± 0.1 µM; IC50 (HeLa): 4.32 ± 0.43 µM; IC50 (MCF-7): 0.83 ± 0.23 µM
CN1/C(=c2\s/c(=C\c3scc[n+]3Cc3ccccc3)n(C3CC3)c2=O)Sc2cc(Cl)ccc21 | – | 0.56 ± 0.08 µM | –
COC(=O)Cn1c(=O)/c(=C2\Sc3ccccc3N2C)s/c1=C\c1nccs1 | > 50 µM | > 30 µM | –
CN1/C(=c2\s/c(=C\c3scc[n+]3Cc3ccccc3C(F)(F)F)n(C)c2=O)Sc2c1ccc(F)c2F | – | 0.12 ± 0.009 µM | –
CCn1c(=O)/c(=C2\Sc3c(ccc(F)c3F)N2C)s/c1=C\c1scc[n+]1Cc1ccccc1 | – | 0.24 ± 0.01 µM | –
COC(=O)Cn1c(=O)/c(=C2\Sc3ccc(F)cc3N2C)s/c1=C\c1ccncc1 | – | > 20 µM | –
CCn1c(=O)/c(=C2\Sc3cc(Cl)ccc3N2C)s/c1=C\c1scc[n+]1Cc1ccc([N+](=O)[O-])o1 | – | > 30 µM | –
COC(=O)Cn1c(=O)/c(=C2\Sc3cccc(F)c3N2C)s/c1=C\c1ccccn1 | – | > 20 µM | –
CCn1c(=O)/c(=C2\Sc3cc(OC(F)(F)F)ccc3N2C)s/c1=C\c1ccccn1 | > 50 µM | 4.4 ± 0.5 µM | –
COC(=O)CCn1c(=O)/c(=C2\Sc3cc(F)ccc3N2C)s/c1=C\c1ccccn1 | – | 9 ± 1.7 µM | –
CCn1c(=O)/c(=C2\Sc3cc(OC(F)(F)F)ccc3N2C)s/c1=C\c1cccc[n+]1Cc1ccccc1 | – | 0.71 ± 0.12 µM | –
CCn1c(=O)/c(=C2\Sc3c(ccc(F)c3F)N2C)s/c1=C\c1scc[n+]1Cc1ccsc1Br | – | 0.48 ± 0.06 µM | –
CCn1c(=O)/c(=C2\Sc3cc(C(F)(F)F)ccc3N2C)s/c1=C\c1nccs1 | – | 2.6 ± 0.5 µM | –
CCn1c(=O)/c(=C2\Sc3c(ccc(F)c3F)N2C)s/c1=C\c1cccc[n+]1Cc1ccc(C(F)(F)F)o1 | – | 0.92 ± 0.1 µM | –
CCn1c(=O)/c(=C2\Sc3cc(OC(F)(F)F)ccc3N2C)s/c1=C\c1scc[n+]1Cc1ccccc1 | 1.2 ± 0.1 µM | 0.8 ± 0.1 µM | IC50 (MCF-7; second table): 0.4 ± 0.04 µM
COC(=O)Cn1c(=O)/c(=C2\Sc3c(F)cccc3N2C)s/c1=C\c1ccccn1 | – | > 20 µM | –
CCn1c(=O)/c(=C2\Sc3cc(Cl)ccc3N2C)s/c1=C\c1scc[n+]1Cc1ccccc1F | – | 0.29 ± 0.04 µM | –
COC(=O)CCn1c(=O)/c(=C2\Sc3cc(F)ccc3N2C)s/c1=C\c1scc[n+]1Cc1ccccc1 | – | 0.96 ± 0.07 µM | –
CCn1c(=O)/c(=C2\Sc3cc(OC(F)(F)F)ccc3N2C)s/c1=C\c1scc[n+]1Cc1ccc(C(F)(F)F)o1 | – | 0.51 ± 0.03 µM | –
CCn1c(=O)/c(=C2\Sc3cc(Cl)ccc3N2C)s/c1=C\c1scc[n+]1Cc1ccsc1C(=O)OC | – | 0.076 ± 0.01 µM | –
CCn1c(=O)/c(=C2\Sc3c(ccc(F)c3F)N2C)s/c1=C\c1cccc[n+]1Cc1cc(C)on1 | – | 3.72 ± 0.41 µM | –
CCn1c(=O)/c(=C2\Sc3cc(Cl)ccc3N2C)s/c1=C\c1scc[n+]1Cc1ccccc1C(F)(F)F | – | 0.13 ± 0.01 µM | –
CCn1c(=O)/c(=C2\Sc3ccc(Cl)cc3N2C)s/c1=C\c1scc[n+]1Cc1ccsc1Br | – | 0.24 ± 0.03 µM | –
CCn1c(=O)/c(=C2\Sc3ccc(C)cc3N2C)s/c1=C\c1scc[n+]1Cc1ccccc1 | – | 0.078 ± 0.01 µM | –
C=CCn1c(=O)/c(=C2\Sc3c(F)cccc3N2C)s/c1=C\c1ccncc1 | > 50 µM | 3.07 ± 0.73 µM | –
CCn1c(=O)/c(=C2\Sc3cc(Cl)ccc3N2C)s/c1=C\c1scc[n+]1Cc1ccc(C(=O)OC)o1 | – | 0.97 ± 0.1 µM | –
CN1/C(=c2\s/c(=C\c3ccncc3)n(CC(=O)O)c2=O)Sc2cccc(F)c21 | – | > 20 µM | –
